Where two headings read alike, the source gives them in different places.
Columns and labels:
Test in all cases: Kinase selectivity, DiscoverX scanMAX Kinase assay panel (% control)
Assay type in all cases: binding
[1] = biological target: T1, kinases of the scanMAX Kinase assay panel (Homo sapiens, UniProt O14936); conditions: CASK; 1 uM
T1 construct: purchased DiscoverX Co. (contract measurement) scanMAX Kinase assay panel
T1 sequence (O14936 1-926): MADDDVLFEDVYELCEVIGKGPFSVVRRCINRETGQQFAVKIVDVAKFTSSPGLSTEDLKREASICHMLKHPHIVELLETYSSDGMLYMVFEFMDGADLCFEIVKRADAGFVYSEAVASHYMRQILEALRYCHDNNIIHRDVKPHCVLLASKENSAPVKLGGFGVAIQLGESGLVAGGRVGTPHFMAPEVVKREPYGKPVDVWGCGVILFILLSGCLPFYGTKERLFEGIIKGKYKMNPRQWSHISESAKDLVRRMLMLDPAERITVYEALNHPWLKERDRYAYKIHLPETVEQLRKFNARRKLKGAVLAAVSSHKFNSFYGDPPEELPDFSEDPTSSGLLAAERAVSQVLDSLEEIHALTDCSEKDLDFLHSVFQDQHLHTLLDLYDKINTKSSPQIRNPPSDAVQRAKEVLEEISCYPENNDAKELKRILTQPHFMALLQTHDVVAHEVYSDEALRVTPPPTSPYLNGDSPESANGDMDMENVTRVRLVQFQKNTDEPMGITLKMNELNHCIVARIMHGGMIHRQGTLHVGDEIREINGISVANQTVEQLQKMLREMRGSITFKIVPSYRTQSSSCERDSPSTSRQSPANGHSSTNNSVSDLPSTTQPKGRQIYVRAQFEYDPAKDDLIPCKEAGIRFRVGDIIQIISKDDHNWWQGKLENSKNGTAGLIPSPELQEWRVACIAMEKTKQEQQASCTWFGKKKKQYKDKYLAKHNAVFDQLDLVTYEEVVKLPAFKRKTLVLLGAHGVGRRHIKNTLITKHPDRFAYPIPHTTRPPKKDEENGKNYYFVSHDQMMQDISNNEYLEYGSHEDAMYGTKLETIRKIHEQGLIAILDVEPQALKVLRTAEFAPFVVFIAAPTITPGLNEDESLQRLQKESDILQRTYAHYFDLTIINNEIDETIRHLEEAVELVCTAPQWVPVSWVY
Outline: (§1)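 Read-out is % control, normalised so a positive-control compound sits at 0% and DMSO at 100%: (test − positive)/(negative − positive)×100. Each kinase received the compound at 1 uM in DMSO. A value below 35% counts as activity.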

[2] = biological target: T2, kinases of the scanMAX Kinase assay panel (Homo sapiens, UniProt P07333); conditions: 1 uM
T2 construct: purchased DiscoverX Co. (contract measurement) scanMAX Kinase assay panel
T2 sequence (P07333 20-972): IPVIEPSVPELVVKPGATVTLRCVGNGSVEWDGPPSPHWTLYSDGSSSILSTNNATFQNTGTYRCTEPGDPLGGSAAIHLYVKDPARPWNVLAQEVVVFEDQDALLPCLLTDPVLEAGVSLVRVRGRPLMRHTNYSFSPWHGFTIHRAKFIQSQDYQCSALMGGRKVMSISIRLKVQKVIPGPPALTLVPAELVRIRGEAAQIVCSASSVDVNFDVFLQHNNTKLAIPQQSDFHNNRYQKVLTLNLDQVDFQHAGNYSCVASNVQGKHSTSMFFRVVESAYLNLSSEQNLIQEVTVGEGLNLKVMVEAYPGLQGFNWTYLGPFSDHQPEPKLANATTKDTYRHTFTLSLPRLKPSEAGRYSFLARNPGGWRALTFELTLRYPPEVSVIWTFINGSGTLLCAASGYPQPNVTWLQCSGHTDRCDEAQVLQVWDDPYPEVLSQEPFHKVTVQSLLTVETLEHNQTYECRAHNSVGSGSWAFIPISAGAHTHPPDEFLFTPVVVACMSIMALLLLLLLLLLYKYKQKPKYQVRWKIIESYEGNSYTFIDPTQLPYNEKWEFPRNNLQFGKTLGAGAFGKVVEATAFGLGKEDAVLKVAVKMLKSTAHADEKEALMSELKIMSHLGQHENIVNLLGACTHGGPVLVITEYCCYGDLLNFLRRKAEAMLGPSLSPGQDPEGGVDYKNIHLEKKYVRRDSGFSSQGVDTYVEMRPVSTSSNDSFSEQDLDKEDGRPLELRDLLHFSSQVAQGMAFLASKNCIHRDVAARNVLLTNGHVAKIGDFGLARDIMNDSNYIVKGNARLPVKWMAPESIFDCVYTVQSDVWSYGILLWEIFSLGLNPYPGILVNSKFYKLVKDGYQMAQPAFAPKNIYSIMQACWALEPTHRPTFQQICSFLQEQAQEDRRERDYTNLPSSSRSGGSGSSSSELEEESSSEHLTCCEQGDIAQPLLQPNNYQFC
Outline: as §1

[3] = biological target: T3, kinases of the scanMAX Kinase assay panel (Homo sapiens, UniProt P36897); conditions: kinase TGFBR1; 1 uM in DMSO
T3 construct: purchased DiscoverX Co. (contract measurement) scanMAX Kinase assay panel
T3 sequence (P36897 34-503): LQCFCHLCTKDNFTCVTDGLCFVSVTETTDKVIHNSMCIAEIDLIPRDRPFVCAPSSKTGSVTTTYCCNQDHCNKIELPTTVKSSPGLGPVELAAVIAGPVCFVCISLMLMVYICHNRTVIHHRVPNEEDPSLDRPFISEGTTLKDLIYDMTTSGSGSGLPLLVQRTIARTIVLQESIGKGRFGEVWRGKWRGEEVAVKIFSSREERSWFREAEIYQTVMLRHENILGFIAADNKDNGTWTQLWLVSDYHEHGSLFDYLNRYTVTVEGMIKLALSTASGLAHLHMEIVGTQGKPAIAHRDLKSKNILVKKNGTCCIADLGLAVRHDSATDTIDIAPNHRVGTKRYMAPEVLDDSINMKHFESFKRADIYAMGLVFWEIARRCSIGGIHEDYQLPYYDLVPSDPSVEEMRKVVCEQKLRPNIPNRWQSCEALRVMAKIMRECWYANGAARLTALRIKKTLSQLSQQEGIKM
Outline: as §1

[4] = biological target: T4, kinases of the scanMAX Kinase assay panel (Homo sapiens, UniProt Q13464); conditions: kinase ROCK1; 1 uM in DMSO
T4 construct: purchased DiscoverX Co. (contract measurement) scanMAX Kinase assay panel
T4 sequence (Q13464 whole entry): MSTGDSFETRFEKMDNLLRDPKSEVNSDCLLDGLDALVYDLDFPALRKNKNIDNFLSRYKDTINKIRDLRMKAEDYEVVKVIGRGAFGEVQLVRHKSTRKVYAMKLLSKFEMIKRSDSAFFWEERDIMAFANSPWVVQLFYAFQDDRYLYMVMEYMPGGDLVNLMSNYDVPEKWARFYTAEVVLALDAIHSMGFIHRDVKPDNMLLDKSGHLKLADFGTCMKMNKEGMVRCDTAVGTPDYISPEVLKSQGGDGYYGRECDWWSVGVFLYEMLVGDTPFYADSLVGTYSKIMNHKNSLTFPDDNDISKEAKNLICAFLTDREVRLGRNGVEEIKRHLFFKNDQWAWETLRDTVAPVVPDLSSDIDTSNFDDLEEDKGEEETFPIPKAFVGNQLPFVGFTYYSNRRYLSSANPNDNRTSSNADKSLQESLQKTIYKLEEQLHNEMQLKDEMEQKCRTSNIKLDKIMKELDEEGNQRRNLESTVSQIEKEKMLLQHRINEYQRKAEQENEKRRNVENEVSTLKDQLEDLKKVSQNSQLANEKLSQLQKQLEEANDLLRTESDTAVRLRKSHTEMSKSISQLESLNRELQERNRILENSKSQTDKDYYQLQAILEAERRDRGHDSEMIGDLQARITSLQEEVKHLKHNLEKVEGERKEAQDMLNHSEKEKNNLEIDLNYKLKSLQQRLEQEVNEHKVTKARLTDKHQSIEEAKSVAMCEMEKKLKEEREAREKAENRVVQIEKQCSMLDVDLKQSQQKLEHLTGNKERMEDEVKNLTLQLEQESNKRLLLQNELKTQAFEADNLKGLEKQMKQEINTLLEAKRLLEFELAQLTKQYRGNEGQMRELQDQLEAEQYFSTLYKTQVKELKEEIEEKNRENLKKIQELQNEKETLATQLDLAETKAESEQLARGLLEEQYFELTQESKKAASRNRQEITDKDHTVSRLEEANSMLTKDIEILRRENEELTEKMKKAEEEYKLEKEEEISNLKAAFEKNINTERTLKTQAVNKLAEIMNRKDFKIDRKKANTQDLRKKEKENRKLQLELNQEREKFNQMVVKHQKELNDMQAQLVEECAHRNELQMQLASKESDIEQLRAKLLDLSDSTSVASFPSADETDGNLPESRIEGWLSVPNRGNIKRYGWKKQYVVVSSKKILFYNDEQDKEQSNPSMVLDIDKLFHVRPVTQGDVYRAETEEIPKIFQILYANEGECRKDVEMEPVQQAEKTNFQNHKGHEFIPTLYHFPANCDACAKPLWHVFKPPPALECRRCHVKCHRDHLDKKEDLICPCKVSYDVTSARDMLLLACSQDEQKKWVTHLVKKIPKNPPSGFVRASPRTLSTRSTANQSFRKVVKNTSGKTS
Outline: as §1

[5] = biological target: T5, kinases of the scanMAX Kinase assay panel (Homo sapiens, UniProt Q15831); conditions: LKB1; 1 uM
T5 construct: purchased DiscoverX Co. (contract measurement) scanMAX Kinase assay panel
T5 sequence (Q15831 1-433): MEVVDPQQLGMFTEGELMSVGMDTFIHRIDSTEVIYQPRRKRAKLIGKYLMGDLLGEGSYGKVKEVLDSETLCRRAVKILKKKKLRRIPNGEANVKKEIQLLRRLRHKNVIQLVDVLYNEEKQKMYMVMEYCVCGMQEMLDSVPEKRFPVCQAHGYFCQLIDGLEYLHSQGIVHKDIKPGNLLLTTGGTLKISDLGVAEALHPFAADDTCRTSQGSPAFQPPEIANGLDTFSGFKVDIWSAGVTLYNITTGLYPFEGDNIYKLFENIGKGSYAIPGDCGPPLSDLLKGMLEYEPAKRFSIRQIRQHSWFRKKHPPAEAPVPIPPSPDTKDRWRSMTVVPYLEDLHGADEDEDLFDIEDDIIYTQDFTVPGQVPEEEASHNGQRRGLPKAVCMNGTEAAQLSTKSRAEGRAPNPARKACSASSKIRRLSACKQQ
Outline: as §1

[6] = biological target: T6, kinases of the scanMAX Kinase assay panel (Homo sapiens, UniProt Q9UK32); conditions: 1 uM in DMSO
T6 construct: purchased DiscoverX Co. (contract measurement) scanMAX Kinase assay panel
T6 sequence (Q9UK32 whole entry): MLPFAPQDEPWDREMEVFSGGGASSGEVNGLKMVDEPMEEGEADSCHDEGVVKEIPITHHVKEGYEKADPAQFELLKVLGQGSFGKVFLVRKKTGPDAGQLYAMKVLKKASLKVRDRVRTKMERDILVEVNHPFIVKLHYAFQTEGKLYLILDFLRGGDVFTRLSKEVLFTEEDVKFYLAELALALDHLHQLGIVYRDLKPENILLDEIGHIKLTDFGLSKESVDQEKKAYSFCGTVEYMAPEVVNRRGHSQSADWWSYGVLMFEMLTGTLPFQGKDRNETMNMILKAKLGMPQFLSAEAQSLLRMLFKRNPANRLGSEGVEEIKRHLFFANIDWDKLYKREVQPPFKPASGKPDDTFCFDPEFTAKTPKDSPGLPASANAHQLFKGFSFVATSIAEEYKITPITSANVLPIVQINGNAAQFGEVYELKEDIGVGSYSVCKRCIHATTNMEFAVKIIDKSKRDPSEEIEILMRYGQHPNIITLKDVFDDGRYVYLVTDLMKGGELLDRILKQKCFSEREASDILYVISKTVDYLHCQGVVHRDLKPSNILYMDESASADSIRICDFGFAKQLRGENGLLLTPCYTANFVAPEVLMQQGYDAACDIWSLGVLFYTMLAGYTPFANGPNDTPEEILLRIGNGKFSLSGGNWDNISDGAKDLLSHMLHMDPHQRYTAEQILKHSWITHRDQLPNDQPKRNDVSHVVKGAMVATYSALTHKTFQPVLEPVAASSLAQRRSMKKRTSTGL
Outline: as §1

[7] = biological target: T7, kinases of the scanMAX Kinase assay panel (Homo sapiens, UniProt Q9Y5S2); conditions: MRCKB; 1 uM
T7 construct: purchased DiscoverX Co. (contract measurement) scanMAX Kinase assay panel
T7 sequence (Q9Y5S2 whole entry): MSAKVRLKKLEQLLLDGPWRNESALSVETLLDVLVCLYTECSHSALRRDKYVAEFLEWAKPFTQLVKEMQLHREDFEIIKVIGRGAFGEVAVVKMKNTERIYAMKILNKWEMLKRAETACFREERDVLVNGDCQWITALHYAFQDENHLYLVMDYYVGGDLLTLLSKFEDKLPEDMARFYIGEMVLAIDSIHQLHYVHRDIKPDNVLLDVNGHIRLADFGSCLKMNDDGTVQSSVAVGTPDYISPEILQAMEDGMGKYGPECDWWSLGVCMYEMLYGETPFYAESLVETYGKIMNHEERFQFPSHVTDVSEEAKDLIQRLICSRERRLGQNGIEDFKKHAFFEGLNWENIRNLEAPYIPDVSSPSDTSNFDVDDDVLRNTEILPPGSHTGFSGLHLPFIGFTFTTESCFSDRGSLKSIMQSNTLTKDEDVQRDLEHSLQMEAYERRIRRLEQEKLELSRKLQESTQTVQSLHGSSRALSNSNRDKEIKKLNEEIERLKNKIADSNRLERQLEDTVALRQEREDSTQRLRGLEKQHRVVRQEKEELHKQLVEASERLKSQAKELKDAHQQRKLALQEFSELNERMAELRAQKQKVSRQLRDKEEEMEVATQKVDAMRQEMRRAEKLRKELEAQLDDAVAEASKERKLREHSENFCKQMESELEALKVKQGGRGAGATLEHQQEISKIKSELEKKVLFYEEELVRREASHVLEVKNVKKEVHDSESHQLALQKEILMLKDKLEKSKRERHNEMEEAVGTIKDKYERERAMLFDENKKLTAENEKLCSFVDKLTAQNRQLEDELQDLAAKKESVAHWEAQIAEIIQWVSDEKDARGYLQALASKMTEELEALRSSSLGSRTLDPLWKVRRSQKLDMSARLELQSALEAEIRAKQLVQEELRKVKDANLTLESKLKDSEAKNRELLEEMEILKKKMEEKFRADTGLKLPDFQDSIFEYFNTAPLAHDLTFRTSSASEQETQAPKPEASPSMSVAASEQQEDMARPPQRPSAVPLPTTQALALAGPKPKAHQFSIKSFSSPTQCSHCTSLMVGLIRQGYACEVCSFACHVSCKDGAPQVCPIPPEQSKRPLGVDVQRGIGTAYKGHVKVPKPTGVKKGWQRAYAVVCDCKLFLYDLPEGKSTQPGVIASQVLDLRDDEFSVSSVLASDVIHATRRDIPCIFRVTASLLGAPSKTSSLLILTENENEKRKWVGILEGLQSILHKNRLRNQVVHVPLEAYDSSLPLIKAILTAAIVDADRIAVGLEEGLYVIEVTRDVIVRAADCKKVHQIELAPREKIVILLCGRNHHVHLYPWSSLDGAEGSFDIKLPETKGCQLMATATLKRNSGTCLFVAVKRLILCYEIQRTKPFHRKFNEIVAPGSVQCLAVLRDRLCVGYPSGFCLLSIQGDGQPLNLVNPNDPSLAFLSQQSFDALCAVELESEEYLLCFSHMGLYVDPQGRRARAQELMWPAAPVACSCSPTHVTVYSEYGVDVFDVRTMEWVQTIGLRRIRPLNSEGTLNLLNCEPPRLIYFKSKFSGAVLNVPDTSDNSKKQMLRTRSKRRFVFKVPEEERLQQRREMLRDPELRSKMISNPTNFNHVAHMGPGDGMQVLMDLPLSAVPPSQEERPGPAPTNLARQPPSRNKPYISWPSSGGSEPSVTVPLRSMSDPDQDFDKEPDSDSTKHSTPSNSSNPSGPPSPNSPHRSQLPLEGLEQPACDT
Outline: as §1

[8] = kinase RSK4(Kin.Dom.1-N-terminal), read-out: % control, RSK4(Kin.Dom.1-N-terminal)
[9] = kinase RSK4(Kin.Dom.2-C-terminal), read-out: % control, RSK4(Kin.Dom.2-C-terminal)

| Compound | remaining binding at 1 µM [1] | remaining binding at 1 µM ([2]; CSF1R-autoinhibited) | remaining binding at 1 µM ([2]; CSF1R) | remaining binding at 1 µM [3] | remaining binding at 1 µM [4] | remaining binding at 1 µM [5] | remaining binding at 1 µM [6, 8] | remaining binding at 1 µM [6, 9] | remaining binding at 1 µM [7] |
| --- | --- | --- | --- | --- | --- | --- | --- | --- | --- |
| CCNc1nc(Nc2ccc(C(=O)N3CCC(N4CCOCC4)CC3)cc2OC)nc2[nH]cc(C(F)(F)F)c12 [Example 104, (4-((4-(ethylamino)-5-(trifluoromethyl)-7H-pyrrolo[2,3-d]pyrimidine-2-yl)amino)-3-methoxyphenyl)(4-morpholinopiperidine-1-yl)methanone] | 100% | 100% | 88% | 100% | 100% | 87% | 95% | 97% | 100% |
| CC1(Nc2nc(Nc3cnn([C@H]4CCN(C5COC5)C[C@@H]4F)c3Cl)nc3[nH]cc(C#N)c23)CC1 [Example 52, 2-((5-chloro-1-((3S,4S)-3-fluoro-1-(oxetane-3-yl)piperidine-4-yl)-1H-pyrazole-4-yl)amino)((1-methylcyclopropyl)amino)-7H-pyrrolo[2,3-d]pyrimidine-5-carbonitrile] | 91% | 0% | 0% | 91% | 28% | 31% | 7.1% | 75% | 89% |
| CNc1nc(Nc2ccc(C(=O)N3CCOCC3)cc2OC)nc2[nH]cc(C#N)c12 [Example 1, 2-((2-methoxy-4-(morpholine-4-carbonyl)phenyl)amino)-4-(methylamino)-7H-pyrrolo[2,3-d]pyrimidine-5-carbonitrile] | 69% | 46% | 89% | 5.1% | 64% | 91% | 79% | 77% | 100% |
